Experimental data reported in ChEMBL document CHEMBL1201862, “PubChem BioAssay data set” (2004).
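Assay format: 96-well plates, 48-hour exposure. GI50: concentration for 50% inhibition of growth.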 Active and inactive are the calls of the source. Cut-off read from the data, not from the text of the source: active = GI50 up to about 1.1 µM and inactive = higher.

Tests used:
Assay in all cases: NCI tumour cell line growth inhibition, 48 h
786-0 = test system: 786-0
A498 = test system: A498
A549 = test system: A549
CCRF-CEM = test system: CCRF-CEM
HL-60 = test system: HL-60
K562 = test system: K562
M14 = test system: M14
SF-295 = test system: SF-295
SF-539 = test system: SF-539
SK-MEL-2 = test system: SK-MEL-2
SN12C = test system: SN12C
SNB-75 = test system: SNB-75
SR = test system: SR
TK-10 = test system: TK-10
NCI-H522 = test system: NCI-H522

Measured: GI50

CCc1cc2c(Nc3ccccc3)c3c(nc2s1)CCCC3
inactive: 786-0 29.2 µM | A498 25.8 µM | A549 8.53 µM | CCRF-CEM 20.9 µM | HL-60 6.05 µM | K562 3.41 µM | M14 > 100 µM | SF-295 28.8 µM | SF-539 43 µM | SK-MEL-2 > 100 µM | SN12C > 100 µM | SNB-75 7.46 µM | SR 5.3 µM | TK-10 > 100 µM

CN(C)CC1CCCCCCCCCCCCC(CN(C)C)C1=O (stereo not drawn)
inactive: 786-0 10.1 µM | A498 18.7 µM | A549 15.5 µM | M14 13.2 µM | SF-295 15.8 µM | SF-539 15.2 µM | SK-MEL-2 12.4 µM | SN12C 15.2 µM | SNB-75 11.9 µM | SR 1.46 µM | TK-10 14.7 µM

COc1ccc(-c2cc(=O)c3c(O)c(OC)c(O)c(OC)c3o2)cc1OC
inactive: 786-0 > 100 µM | A498 36.4 µM | A549 72.1 µM | CCRF-CEM 33.6 µM | HL-60 41.3 µM | K562 45.9 µM | M14 > 100 µM | NCI-H522 12 µM | SF-295 > 100 µM | SF-539 46.2 µM | SN12C 43.4 µM | SNB-75 21.8 µM | SR 31.2 µM

COC(=O)C12CC3CC(C1)CC(C(=O)OC)(C3)C2
inactive: 786-0 > 100 µM | A498 > 100 µM | A549 > 100 µM | CCRF-CEM > 100 µM | HL-60 55.8 µM | M14 > 100 µM | NCI-H522 > 100 µM | SF-295 > 100 µM | SF-539 > 100 µM | SN12C > 100 µM | SNB-75 > 100 µM | SR > 100 µM | TK-10 > 100 µM

COc1cccc(-c2cc(=O)c3cc(C)c(C)c(C(=O)O)c3o2)c1
inactive: 786-0 > 100 µM | A498 > 100 µM | A549 > 100 µM | CCRF-CEM > 100 µM | HL-60 > 100 µM | K562 > 100 µM | M14 > 100 µM | NCI-H522 > 100 µM | SF-295 > 100 µM | SF-539 > 100 µM | SK-MEL-2 > 100 µM | SN12C > 100 µM | SNB-75 16.9 µM | TK-10 > 100 µM

CCCCCCCCCCCCCCCCCc1nnc(N)o1
inactive: 786-0 > 100 µM | A549 > 100 µM | HL-60 > 100 µM | K562 > 100 µM | M14 > 100 µM | NCI-H522 > 100 µM | SF-295 > 100 µM | SF-539 > 100 µM | SK-MEL-2 > 100 µM | SN12C > 100 µM | SNB-75 > 100 µM | SR > 100 µM | TK-10 > 100 µM
